# According to US4711877A, “6-pen-vasopressin compounds” (SmithKline Beckman Corporation, priority 1985, dated 1987):
# Positions of bridges follow the written chain, without caps; N, C: chain ends. Non-standard residues stand in square brackets, D forms with d. Residues, ends and D or L forms follow the SMILES beside them. Pen = CC(C)(S)[C@H](N)C(=O)O; Mpa = O=C(O)CCS
# Legend:
# [1] = biological target: T1, vasopressin receptor sites (Sus scrofa, UniProt P32307); assay: Binding activity in hog tissue (KB), protocol of Stassen et al.
# T1 construct: from tissue; renal medulla by own knowledge of the cited protocol
# T1 sequence (P32307 whole entry): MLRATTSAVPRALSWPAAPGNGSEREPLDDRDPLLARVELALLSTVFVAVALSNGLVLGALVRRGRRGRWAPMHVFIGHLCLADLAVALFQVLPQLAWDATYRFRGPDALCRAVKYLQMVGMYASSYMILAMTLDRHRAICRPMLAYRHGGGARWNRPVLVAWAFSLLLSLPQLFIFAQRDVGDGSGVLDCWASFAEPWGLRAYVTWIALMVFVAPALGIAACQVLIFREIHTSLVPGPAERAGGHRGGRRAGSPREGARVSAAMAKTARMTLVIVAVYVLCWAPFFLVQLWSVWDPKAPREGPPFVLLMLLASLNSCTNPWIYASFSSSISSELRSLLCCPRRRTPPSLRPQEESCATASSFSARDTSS
# Source text: (§1) The binding activity in hog and rat liver tissue, as well as the antagonistic activity in the hydropenic rat, of the compounds according to this invention is illustrated by the following results which were obtained using testing protocols which are described in the literature [F. Stassen, J. Pharmacology and Experimental Therapeutics, 223 50 (1982)]: […]
# [2] = biological target: T2, vasopressin receptor sites (Rattus norvegicus, UniProt P30560); assay: Binding activity in rat liver tissue (KB), protocol of Stassen et al.
# T2 construct: from tissue; host or cells: rat liver tissue
# T2 sequence (P30560 whole entry): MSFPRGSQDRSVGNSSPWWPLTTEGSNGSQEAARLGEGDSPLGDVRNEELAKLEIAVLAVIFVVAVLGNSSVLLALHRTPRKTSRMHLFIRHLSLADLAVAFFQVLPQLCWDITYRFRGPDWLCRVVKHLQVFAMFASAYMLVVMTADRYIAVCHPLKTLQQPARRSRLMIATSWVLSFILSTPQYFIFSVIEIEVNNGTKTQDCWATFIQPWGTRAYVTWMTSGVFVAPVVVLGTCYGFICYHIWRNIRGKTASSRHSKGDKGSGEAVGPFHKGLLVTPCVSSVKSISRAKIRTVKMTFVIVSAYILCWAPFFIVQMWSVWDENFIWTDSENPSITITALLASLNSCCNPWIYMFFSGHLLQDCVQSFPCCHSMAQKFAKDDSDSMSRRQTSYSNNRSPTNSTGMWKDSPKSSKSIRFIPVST
# Source text: as §1
structure (smiles),measurement,setting,value
"CCOc1ccc(C[C@H]2NC(=O)CCSSC[C@@H](C(=O)N3CCC[C@H]3C(=O)N[C@@H](CCCNC(=N)N)C(=O)NCC(N)=O)NC(=O)[C@H](CC(N)=O)NC(=O)[C@H](C(C)C)NC(=O)[C@H](Cc3ccccc3)NC2=O)cc1 [Compound B, Mpr--D-Tyr(Et)--Phe--Val--Asn--Cys--Pro--Arg--Gly(NH2), reference compound] ([Mpa][dY](Et)FVNCPRG-NH2; disulfide 1-6)",Kb,[1],9900 nM
"CCOc1ccc(C[C@H]2NC(=O)CCSSC(C)(C)[C@@H](C(=O)N3CCC[C@H]3C(=O)N[C@@H](CCCNC(=N)N)C(=O)NCC(N)=O)NC(=O)[C@H](CC(N)=O)NC(=O)[C@H](C(C)C)NC(=O)[C@H](Cc3ccccc3)NC2=O)cc1 [Compound A, Mpr--D-Tyr(Et)--Phe--Val--Asn--Pen--Pro--Arg--Gly(NH2)] ([Mpa][dY](Et)FVN[Pen]PRG-NH2; disulfide 1-6)",Kb,[1],190 nM
same,Kb,[2],110 nM
